Laboratory results: the supplement of paper PMC10307832

Experiments:
[1] = compound: C[C@@]1(C(=O)Nc2ccc(F)nc2)CCCN1c1nc(Nc2cc(C3CC3)n[nH]2)c2cccn2n1 + COc1cc2c(Oc3ccc(NC(=O)C4(C(=O)Nc5ccc(F)cc5)CC4)cc3F)ccnc2cc1OCCCN1CCOCC1 [Foretinib] (partner 0.25 µM); assay: relative viability (nuclei count vs DMSO), 5 days (fraction); higher = more cells survive
Summary of the method: (§1)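 Relative viability divides the nuclei count in treated wells by that in vehicle wells. Lung cancer cell lines were seeded in 1536-well plates, dosed by pin tool the next day, and fixed and stained after 5 days in one step with final 0.05% Triton X-100, 1% formaldehyde and 1 ug/ml Hoechst. Dosing was a single drug or a fixed anchor-drug dose plus five library-drug doses (not always all listed) in √10 steps, and values are medians of duplicate plates imaged at 4×.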

Motesanib + Navitoclax = compound: CC1(C)CNc2cc(NC(=O)c3cccnc3NCc3ccncc3)ccc21 [Motesanib] + CC1(C)CCC(c2ccc(Cl)cc2)=C(CN2CCN(c3ccc(C(=O)NS(=O)(=O)c4ccc(N[C@H](CCN5CCOCC5)CSc5ccccc5)c(S(=O)(=O)C(F)(F)F)c4)cc3)CC2)C1 [Navitoclax] (partner 0.5 µM); assay: as above
Summary of the method: as §1

Cell Line | relative viability ([1]; first compound 0.04 µM) | relative viability ([1]; first compound 0.1265 µM) | relative viability ([1]; first compound 0.4 µM) | relative viability ([1]; first compound 1.265 µM) | relative viability (Motesanib + Navitoclax; first compound 0.01 µM) | relative viability (Motesanib + Navitoclax; first compound 0.03162 µM) | relative viability (Motesanib + Navitoclax; first compound 0.1 µM) | relative viability (Motesanib + Navitoclax; first compound 0.3162 µM) | relative viability (Motesanib + Navitoclax; first compound 1 µM)
NCI-H1651 | 0.775 | 0.704 | 0.621 | 0.895 | 1.08 | 0.946 | 1.09 | 0.994 | 1
NCI-H1755 | 0.914 | 0.729 | 0.85 | 0.89 | 0.938 | 0.966 | 1.02 | 0.991 | 1
NCI-H661 | 1.04 | 1.03 | 1.06 | 0.936 |  |  |  |  | 
HARA | 0.802 | 0.78 | 0.652 | 1.01 | 1.11 | 1.18 | 1.21 | 1.2 | 1.22
NCI-H596 | 0.731 | 0.752 | 0.649 | 0.972 | 0.962 | 0.893 | 0.9 | 0.879 | 1.1
NCI-H1563 | 1 | 0.975 | 0.784 | 0.83 |  |  |  |  | 
NCI-H23 | 0.591 | 0.539 | 0.622 | 0.914 | 0.901 | 0.552 |  | 0.779 | 0.826
A549 | 0.891 | 0.659 | 0.582 | 0.272 | 1.19 | 1.23 | 1.17 | 1.34 | 1.32
LCLC-97TM1 | 0.31 | 0.292 | 0.278 | 0.499 | 0.406 | 0.519 | 0.32 | 0.375 | 0.657
EPLC-272H | 0.57 |  | 0.558 | 0.796 | 1.16 | 0.905 | 1.3 | 1.04 | 1.26
NCI-H2342 | 1.02 | 0.906 | 0.812 | 0.917 |  |  |  |  | 
NCI-H1915 | 1.11 | 1.04 | 1.04 | 1.18 | 0.782 | 0.747 | 0.824 | 0.794 | 0.784
NCI-H2405 | 0.866 | 0.818 | 0.742 | 0.77 |  | 0.863 | 0.856 | 0.892 | 0.965
NCI-H322M | 0.907 | 0.608 | 0.62 | 0.655 | 1.19 | 1.32 | 1.33 | 1.2 | 1.23
NCI-H2170 | 0.932 | 1.02 | 0.973 | 1.08 | 0.574 | 0.773 | 0.545 | 0.676 | 0.537
NCI-H1623 | 0.658 | 0.82 | 0.57 | 0.672 |  |  |  |  | 
NCI-H1395 | 1.05 | 0.84 | 0.932 | 0.921 | 1.22 | 1.06 | 1.27 | 1.17 | 1.27
IA-LM | 1.3 | 1.11 | 0.921 | 1.13 | 0.803 | 0.827 | 0.737 | 0.673 | 0.631
NCI-H358 | 0.471 | 0.385 | 0.202 | 0.183 |  |  |  |  | 
NCI-H838 | 1.08 | 0.819 | 0.631 | 0.887 | 1.25 | 1.21 | 1.09 | 1.25 | 1.14
CAL-12T | 1.15 | 1.06 | 0.897 | 0.4 | 1.34 | 1.47 | 1.3 | 1.24 | 1.28
